Source: ChEMBL document CHEMBL1154879, “Discovery of (thienopyrimidin-2-yl)aminopyrimidines as potent, selective, and orally available pan-PI3-kinase and dual pan-PI3-kinase/mTOR inhibitors for the treatment of cancer” (J Med Chem, 2010)
Active and inactive are the calls of the source. The rule behind the calls is not given here.

Key:
[1] = target: Phosphatidylinositol 4-phosphate 3-kinase C2 domain-containing subunit alpha (Homo sapiens) (UniProt O00443); test: Inhibition of PIK3C2alpha at 1 uM
[2] = target: Phosphatidylinositol 3-kinase catalytic subunit type 3 (Homo sapiens) (UniProt Q8NEB9); test: Inhibition of VPS34 at 1 uM
Mus musculus [3] = test: Inhibition of PI3K/Akt/mTOR pathway signaling in PI3Kalpha mutant expressing human MCF7.1 cells xenografted nu/nu mouse assessed as inhibition of Akt Ser473 phosphorylation at 12.5 mg/kg, po qd for 21 days measured 1 hr after last administered dose on day 21 by electrochemiluminescence assay; format: functional
Mus musculus [4] = test: Inhibition of PI3K/Akt/mTOR pathway signaling in PI3Kalpha mutant expressing human MCF7.1 cells xenografted nu/nu mouse assessed as inhibition of Akt Ser473 phosphorylation at 25 mg/kg, po qd for 21 days measured 1 hr after last administered dose on day 21 by electrochemiluminescence assay; format: functional
Mus musculus [5] = test: Inhibition of PI3K/Akt/mTOR pathway signaling in PI3Kalpha mutant expressing human MCF7.1 cells xenografted nu/nu mouse assessed as inhibition of Pras40 Thr246 phosphorylation at 6.25 mg/kg, po qd for 21 days measured 1 hr after last administered dose on day 21 by ELISA; format: functional
Mus musculus [6] = test: Inhibition of PI3K/Akt/mTOR pathway signaling in PI3Kalpha mutant expressing human MCF7.1 cells xenografted nu/nu mouse assessed as inhibition of Pras40 Thr246 phosphorylation at 25 mg/kg, po qd for 21 days measured 4 hrs after last administered dose on day 21 by ELISA; format: functional
Mus musculus [7] = test: Toxicity in human MCF7.1 cells expressing PI3Kalpha mutant xenografted nu/nu mouse assessed as body weight loss at 12.5 mg/kg, po qd for 21 days; format: organism-based; parameters: dose 12.5 mg/kg, route oral; settings: in vivo, 504 h
Mus musculus [8] = test: Toxicity in human MCF7.1 cells expressing PI3Kalpha mutant xenografted nu/nu mouse assessed as body weight loss at 50 mg/kg, po qd for 21 days; format: organism-based; parameters: dose 50 mg/kg, route oral; settings: in vivo, 504 h
Mus musculus [9] = test: Inhibition of PI3K/Akt/mTOR pathway signaling in PI3Kalpha mutant expressing human MCF7.1 cells xenografted nu/nu mouse assessed as inhibition of S6RP Ser235/236 phosphorylation at 6.25 mg/kg, po qd for 21 days measured 1 hr after last administered dose on day 21 by electrochemiluminescence assay; format: functional
Mus musculus [10] = test: Inhibition of PI3K/Akt/mTOR pathway signaling in PI3Kalpha mutant expressing human MCF7.1 cells xenografted nu/nu mouse assessed as inhibition of S6RP Ser235/236 phosphorylation at 12.5 mg/kg, po qd for 21 days measured 1 hr after last administered dose on day 21 by electrochemiluminescence assay; format: functional
Mus musculus [11] = test: Inhibition of PI3K/Akt/mTOR pathway signaling in PI3Kalpha mutant expressing human MCF7.1 cells xenografted nu/nu mouse assessed as inhibition of S6RP Ser235/236 phosphorylation at 12.5 mg/kg, po qd for 21 days measured 4 hrs after last administered dose on day 21 by electrochemiluminescence assay; format: functional
Mus musculus [12] = test: Inhibition of PI3K/Akt/mTOR pathway signaling in PI3Kalpha mutant expressing human MCF7.1 cells xenografted nu/nu mouse assessed as inhibition of S6RP Ser235/236 phosphorylation at 25 mg/kg, po qd for 21 days measured 4 hrs after last administered dose on day 21 by electrochemiluminescence assay; format: functional
[13] = Protein binding in mouse plasma; format: ADME, cell-free; settings: read-out: PPB (converted)
[14] = target: Phosphatidylinositol 4,5-bisphosphate 3-kinase catalytic subunit alpha isoform (Homo sapiens, UniProt P42336)
[15] = target: T1, Phosphatidylinositol 4,5-bisphosphate 3-kinase catalytic subunit delta isoform (Homo sapiens, UniProt O00329)
T1 sequence (O00329 whole entry): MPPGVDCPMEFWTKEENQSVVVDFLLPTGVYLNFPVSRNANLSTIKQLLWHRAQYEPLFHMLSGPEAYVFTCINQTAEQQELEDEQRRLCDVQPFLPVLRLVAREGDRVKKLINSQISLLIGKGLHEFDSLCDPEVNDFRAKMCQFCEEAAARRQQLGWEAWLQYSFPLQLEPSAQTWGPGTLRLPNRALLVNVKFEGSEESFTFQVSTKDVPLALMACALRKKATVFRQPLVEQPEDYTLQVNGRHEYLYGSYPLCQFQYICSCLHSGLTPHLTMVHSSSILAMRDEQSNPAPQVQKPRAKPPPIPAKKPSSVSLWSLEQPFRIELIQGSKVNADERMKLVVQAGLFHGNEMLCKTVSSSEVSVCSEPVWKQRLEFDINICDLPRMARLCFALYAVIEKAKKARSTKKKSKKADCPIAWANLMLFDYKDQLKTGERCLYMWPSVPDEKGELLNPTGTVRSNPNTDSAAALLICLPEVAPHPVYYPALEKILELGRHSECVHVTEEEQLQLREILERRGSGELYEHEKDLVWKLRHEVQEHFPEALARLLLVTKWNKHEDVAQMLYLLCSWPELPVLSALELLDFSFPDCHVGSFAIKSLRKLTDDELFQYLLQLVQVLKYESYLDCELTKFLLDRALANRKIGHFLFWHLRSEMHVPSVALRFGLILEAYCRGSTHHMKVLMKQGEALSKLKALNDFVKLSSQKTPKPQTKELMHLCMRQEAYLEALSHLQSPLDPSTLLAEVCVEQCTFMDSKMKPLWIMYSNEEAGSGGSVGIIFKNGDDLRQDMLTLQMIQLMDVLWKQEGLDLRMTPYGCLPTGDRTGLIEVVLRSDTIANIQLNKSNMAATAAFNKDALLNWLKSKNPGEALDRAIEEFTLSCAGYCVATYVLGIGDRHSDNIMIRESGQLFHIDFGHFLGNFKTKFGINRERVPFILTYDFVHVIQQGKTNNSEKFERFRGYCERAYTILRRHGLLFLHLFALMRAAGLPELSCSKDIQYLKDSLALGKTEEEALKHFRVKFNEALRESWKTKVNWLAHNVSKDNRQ

[16] = target: Phosphatidylinositol 4,5-bisphosphate 3-kinase catalytic subunit gamma isoform (Homo sapiens, UniProt P48736)
Sequence of Phosphatidylinositol 4,5-bisphosphate 3-kinase catalytic subunit gamma isoform (P48736 whole entry, canonical isoform): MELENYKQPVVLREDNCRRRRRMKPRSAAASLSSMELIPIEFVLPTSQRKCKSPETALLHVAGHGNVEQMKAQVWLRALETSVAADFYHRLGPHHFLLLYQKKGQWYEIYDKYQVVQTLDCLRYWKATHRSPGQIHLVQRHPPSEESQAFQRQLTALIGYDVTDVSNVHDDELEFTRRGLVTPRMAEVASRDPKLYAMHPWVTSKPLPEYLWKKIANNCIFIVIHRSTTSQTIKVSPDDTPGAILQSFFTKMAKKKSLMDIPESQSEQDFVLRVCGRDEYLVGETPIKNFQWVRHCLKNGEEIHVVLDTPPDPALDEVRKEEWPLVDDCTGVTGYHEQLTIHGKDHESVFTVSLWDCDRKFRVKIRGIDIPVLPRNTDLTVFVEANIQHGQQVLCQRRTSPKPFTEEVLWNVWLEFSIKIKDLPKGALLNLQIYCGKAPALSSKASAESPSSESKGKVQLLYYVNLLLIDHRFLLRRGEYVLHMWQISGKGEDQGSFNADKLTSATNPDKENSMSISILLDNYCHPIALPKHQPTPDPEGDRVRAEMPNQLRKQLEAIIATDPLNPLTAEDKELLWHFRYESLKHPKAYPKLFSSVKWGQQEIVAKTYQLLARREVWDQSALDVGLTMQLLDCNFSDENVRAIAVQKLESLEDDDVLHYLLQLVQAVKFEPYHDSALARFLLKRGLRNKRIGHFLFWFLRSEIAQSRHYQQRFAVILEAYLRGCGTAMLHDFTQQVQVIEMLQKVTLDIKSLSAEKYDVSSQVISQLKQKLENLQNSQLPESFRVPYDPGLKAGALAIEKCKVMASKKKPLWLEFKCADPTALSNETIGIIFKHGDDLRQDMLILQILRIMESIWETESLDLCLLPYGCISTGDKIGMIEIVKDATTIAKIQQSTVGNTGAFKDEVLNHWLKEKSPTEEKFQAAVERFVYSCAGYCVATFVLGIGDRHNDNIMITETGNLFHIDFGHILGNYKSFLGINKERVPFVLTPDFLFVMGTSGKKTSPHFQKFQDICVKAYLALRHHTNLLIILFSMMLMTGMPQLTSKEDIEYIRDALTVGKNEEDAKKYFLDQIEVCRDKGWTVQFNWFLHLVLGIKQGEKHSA

Sequence of Phosphatidylinositol 4,5-bisphosphate 3-kinase catalytic subunit alpha isoform (P42336 whole entry, canonical isoform): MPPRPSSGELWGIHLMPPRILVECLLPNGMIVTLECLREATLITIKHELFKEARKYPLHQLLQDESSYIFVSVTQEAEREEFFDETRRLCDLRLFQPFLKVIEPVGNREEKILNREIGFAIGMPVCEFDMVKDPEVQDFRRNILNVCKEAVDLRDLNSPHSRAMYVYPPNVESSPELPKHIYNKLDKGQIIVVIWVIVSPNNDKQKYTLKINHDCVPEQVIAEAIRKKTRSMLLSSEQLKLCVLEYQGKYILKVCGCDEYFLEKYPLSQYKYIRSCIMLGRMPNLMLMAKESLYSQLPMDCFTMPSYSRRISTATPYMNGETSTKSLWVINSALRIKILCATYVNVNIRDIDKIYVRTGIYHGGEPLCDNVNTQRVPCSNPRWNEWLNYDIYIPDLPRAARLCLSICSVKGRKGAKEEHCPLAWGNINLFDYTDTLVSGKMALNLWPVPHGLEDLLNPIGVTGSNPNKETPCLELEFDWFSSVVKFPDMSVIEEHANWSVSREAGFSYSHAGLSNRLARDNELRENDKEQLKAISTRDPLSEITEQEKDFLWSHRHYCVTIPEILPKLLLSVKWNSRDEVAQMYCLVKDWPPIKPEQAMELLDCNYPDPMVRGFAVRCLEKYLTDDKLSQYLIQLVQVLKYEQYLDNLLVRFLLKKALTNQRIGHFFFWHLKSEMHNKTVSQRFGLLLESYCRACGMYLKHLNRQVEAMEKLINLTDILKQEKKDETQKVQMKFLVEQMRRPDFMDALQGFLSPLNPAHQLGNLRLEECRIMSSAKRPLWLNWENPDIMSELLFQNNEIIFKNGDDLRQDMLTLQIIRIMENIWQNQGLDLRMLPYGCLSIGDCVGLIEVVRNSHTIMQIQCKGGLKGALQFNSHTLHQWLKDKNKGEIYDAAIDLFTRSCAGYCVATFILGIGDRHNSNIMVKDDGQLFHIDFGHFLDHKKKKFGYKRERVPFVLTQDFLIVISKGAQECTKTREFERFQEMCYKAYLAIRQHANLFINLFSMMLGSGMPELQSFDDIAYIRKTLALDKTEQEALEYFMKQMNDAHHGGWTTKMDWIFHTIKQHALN
Sequence of Phosphatidylinositol 4-phosphate 3-kinase C2 domain-containing subunit alpha (Homo sapiens) (O00443 whole entry, the tested form may be a part): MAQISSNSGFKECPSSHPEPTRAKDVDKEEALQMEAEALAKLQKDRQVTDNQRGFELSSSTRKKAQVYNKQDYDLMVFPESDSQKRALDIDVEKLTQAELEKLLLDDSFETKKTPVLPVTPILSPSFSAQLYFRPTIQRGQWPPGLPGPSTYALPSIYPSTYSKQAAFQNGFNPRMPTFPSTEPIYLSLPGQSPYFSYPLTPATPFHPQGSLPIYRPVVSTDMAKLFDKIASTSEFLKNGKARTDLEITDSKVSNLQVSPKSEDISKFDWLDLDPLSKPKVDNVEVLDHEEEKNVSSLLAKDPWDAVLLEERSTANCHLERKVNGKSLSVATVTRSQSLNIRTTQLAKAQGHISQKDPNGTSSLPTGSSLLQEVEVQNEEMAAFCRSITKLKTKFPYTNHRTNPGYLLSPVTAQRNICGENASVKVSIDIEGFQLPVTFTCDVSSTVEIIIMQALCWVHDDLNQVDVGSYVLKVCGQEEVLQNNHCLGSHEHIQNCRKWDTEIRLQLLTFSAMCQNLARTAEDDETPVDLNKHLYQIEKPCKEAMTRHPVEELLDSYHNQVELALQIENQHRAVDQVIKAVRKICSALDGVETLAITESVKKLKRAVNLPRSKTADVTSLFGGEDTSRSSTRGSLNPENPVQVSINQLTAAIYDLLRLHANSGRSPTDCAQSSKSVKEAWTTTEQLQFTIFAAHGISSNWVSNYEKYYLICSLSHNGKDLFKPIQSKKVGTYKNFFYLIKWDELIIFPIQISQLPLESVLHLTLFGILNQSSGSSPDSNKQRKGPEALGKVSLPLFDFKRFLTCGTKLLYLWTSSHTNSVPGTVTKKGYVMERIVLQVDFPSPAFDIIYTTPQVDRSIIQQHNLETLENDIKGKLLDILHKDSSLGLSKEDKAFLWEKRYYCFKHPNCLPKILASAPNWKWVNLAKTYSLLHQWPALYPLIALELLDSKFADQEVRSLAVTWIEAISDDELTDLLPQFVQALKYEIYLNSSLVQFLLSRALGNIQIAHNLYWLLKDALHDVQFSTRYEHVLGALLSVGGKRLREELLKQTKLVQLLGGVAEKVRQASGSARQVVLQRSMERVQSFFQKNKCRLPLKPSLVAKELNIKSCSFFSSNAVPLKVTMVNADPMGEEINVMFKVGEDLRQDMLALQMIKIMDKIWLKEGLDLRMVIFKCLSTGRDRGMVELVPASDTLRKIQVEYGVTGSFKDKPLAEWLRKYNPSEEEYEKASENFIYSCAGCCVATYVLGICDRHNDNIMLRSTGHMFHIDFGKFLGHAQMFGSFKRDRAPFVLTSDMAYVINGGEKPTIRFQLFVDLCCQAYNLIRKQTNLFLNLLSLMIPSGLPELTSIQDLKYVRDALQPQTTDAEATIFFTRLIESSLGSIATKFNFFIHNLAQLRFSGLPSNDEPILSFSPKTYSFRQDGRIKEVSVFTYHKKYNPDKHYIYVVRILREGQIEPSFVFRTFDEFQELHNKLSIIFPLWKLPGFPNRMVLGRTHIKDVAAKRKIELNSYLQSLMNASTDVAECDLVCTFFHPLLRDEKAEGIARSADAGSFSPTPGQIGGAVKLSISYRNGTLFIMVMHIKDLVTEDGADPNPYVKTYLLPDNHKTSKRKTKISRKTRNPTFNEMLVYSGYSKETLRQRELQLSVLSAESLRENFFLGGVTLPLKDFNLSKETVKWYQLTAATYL
Sequence of Phosphatidylinositol 3-kinase catalytic subunit type 3 (Homo sapiens) (Q8NEB9 whole entry): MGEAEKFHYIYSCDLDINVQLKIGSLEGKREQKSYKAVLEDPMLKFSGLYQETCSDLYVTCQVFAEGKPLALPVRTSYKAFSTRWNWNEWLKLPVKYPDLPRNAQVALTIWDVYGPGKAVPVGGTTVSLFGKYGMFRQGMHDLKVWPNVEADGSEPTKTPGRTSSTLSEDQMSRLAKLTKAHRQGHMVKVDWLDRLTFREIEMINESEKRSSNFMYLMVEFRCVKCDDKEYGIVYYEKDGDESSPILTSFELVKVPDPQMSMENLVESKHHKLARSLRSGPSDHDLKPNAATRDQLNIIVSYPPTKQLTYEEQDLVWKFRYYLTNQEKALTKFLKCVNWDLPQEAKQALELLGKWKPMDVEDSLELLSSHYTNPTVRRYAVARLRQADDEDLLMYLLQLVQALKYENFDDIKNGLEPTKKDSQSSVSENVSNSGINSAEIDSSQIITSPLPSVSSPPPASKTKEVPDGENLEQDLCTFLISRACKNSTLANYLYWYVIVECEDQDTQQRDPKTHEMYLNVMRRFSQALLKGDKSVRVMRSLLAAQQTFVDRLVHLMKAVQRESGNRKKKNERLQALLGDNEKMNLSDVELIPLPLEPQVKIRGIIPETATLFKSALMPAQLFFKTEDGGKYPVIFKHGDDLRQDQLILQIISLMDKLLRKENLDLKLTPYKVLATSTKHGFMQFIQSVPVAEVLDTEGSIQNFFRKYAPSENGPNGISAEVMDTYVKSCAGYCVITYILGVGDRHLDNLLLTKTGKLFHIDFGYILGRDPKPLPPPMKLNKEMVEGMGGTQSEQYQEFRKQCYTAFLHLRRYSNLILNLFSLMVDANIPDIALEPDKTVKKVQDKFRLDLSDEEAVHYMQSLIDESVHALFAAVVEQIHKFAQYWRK

inhibition [1]: inactive
inhibition [2]: inactive
fraction unbound [13]: 0.27
IC50 [14]: 3.5 nM
IC50 [15]: 5.2 nM
IC50 [16]: 15 nM
Compound: Cc1nc(N)ncc1-c1nc(N2CCOCC2)c2sc(C(C)(C)O)cc2n1
inhibition in vivo at 12.5 mg/kg (Mus musculus [3]): 83%
inhibition in vivo at 25 mg/kg (Mus musculus [4]): 82%
inhibition in vivo at 6.25 mg/kg (Mus musculus [5]): 98%
inhibition in vivo at 25 mg/kg (Mus musculus [6]): 95%
Activity (Mus musculus [7]): Non-toxic
Activity (Mus musculus [8]): Non-toxic
inhibition in vivo at 6.25 mg/kg (Mus musculus [9]): 70%
inhibition in vivo at 12.5 mg/kg (Mus musculus [10]): 77%
inhibition in vivo at 12.5 mg/kg (Mus musculus [11]): 50%
inhibition in vivo at 25 mg/kg (Mus musculus [12]): 63%
